In ChEMBL document CHEMBL5465560, “Selectivity Literature for EUbOPEN Chemogenomic Library” (2024):
Positions count from the first letter of the chain named.

Legend:
Details in all cases: at 1 µM
[1] = test system: T1, Receptor-type tyrosine-protein kinase FLT3 (Homo sapiens), P36888 [N841I]; assay: (§1) Selectivity interaction (KinomeScan (DiscoverX)) EUB0000311b FLT3
T1 sequence (whole entry): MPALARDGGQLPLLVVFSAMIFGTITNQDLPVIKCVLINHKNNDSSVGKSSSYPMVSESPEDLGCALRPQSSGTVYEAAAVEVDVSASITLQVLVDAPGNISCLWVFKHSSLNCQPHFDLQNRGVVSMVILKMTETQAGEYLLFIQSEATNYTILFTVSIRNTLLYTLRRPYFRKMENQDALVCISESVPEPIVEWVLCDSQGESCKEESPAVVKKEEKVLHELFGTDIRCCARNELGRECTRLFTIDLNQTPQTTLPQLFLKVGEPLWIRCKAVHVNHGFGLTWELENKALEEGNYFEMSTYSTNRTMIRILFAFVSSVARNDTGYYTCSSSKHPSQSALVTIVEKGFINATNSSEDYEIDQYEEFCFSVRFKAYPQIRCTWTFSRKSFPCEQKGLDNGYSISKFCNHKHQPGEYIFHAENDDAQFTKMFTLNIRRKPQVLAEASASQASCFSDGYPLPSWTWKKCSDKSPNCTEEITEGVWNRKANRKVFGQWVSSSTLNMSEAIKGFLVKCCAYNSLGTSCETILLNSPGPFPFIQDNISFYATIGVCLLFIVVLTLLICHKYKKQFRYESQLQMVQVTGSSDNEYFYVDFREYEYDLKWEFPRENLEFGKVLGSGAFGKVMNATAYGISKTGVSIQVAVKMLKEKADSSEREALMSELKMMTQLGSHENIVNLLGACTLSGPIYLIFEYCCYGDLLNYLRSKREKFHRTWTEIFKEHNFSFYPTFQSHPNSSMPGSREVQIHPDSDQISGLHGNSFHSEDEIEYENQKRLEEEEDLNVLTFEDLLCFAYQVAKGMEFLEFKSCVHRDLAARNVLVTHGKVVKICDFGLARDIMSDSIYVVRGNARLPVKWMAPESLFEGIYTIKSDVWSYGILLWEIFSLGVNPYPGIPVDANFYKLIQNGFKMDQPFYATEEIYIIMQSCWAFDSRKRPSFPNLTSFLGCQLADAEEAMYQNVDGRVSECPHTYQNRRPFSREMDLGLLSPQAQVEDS

[2] = test system: T2, Receptor-type tyrosine-protein kinase FLT3 (Homo sapiens), P36888 [D835H]; assay: as §1
T2 sequence (whole entry): T1 sequence (whole entry) with D835H, I841N

[3] = test system: T3, Receptor-type tyrosine-protein kinase FLT3 (Homo sapiens), P36888 [K663Q]; assay: as §1
T3 sequence (whole entry): T1 sequence (whole entry) with K663Q, I841N

[4] = molecular target: Receptor-type tyrosine-protein kinase FLT3 (Homo sapiens) (UniProt P36888); assay: as §1

CCc1ccccc1C(=O)Nc1n[nH]c2c(C)c(F)c(C3C(C#N)=C(C)N(C)C(C)=C3C#N)cc12 [BAY-3827]
% of control [1]: 0% | % of control [2]: 16% | % of control [3]: 13% | % of control [4]: 16%
